In patent US20050058745A1, “Use of Labiatae herb preparations for extending the flavor shelf life of malt beverages” (priority 2003, published 2005):

Experiment: Trained panel flavor evaluation, commercial Pilsener, forced aging
Protocol: Separate solutions containing 2% pure rosmarinic acid or pure carnosic acid were prepared by weighing out 500 mg of each compound into separate volumetric flasks and diluting to 25 mL with 100% EtOH.
The beer used in this study was purchased at a local market with a production date of 36 days prior to use. Bottle additions were done as follows: • 1. A bottle of the beer was opened, struck sharply on the top to induce foaming (called “fobbing”), and crowned. The fobbing excludes air. The bottle was swirled and inverted. This sample was designated “No Additions.” • 2. Bottles of beer were opened and an aliquot of either the rosmarinic acid or carnosic acid solutions or a combination of each was added in an amount to give the correct addition rate. The bottle was then fobbed, as above and crowned. It was then swirled and inverted. The samples were designated appropriately to reflect the additive and concentration.
The bottles were placed in a heated room at 40±1° C. in the dark for varying amounts of time. After the allotted aging time, the bottles of beer were transferred to a dark refrigerator and stored at approximately 2° to 4° C. until they were analyzed. Additional bottles from the same code were kept unopened in 2° to 4° C. storage. These unopened samples from the same beer code were labeled “Fresh Control” used to provide fresh samples for the trained panel.
At the appropriate times, a trained 7- or 8-member panel evaluated the beers. In the first study panels, the fresh sample was not identified. Members rated beers for nine attributes that are characteristic for beer: Malt, Yeast, Estery, Hops, Sweet, Stale/Oxidized, Sour/Acid, Solvent (Chemical), and Bitterness. The panel never evaluated more than four beers at a session. The ratings are shown below.

Question: With `CC(C)c1cc2c(c(O)c1O)[C@@]1(C(=O)O)CCCC(C)(C)[C@@H]1CC2` [CA, carnosic acid] as the compound, how does the “ranking (normalized sum of preference, 1 most preferred, 4 least preferred)” value (5 ppm CA, 1 week 40° C.) read?
Answer: 2.6

Question: What about the “ranking (normalized sum of preference, 1 most preferred, 4 least preferred)” value (10 ppm CA, 1 week 40° C.) of the same compound?
Answer: 2.4

Question: What about the “ranking (normalized sum of preference, 1 most preferred, 4 least preferred)” value (20 ppm CA, 1 week 40° C.) of the same compound?
Answer: 2.3

Question: And the “ranking (normalized sum of preference, 1 most preferred, 4 least preferred)” value (20 ppm CA, 2 weeks 40° C.)?
Answer: 2.1
